Legend:
[1] = test system: β-adrenoceptors in the heart; assay: Test I. β-Adrenoceptor blocking activity in the anaesthetised cat (intravenous), cardiac (isoprenaline tachycardia); assay type: in vivo; conditions: hydrochloride salts, isoprenaline 210 seconds after test compound
Experimental: (§1) Test I. β-Adrenoceptor blocking activity in the anaesthetised cat (intravenous administration).
(§2) Cats were anaesthetised with a mixture of pentobarbitone (6-12 mg./kg.) and chloralose suspension (80 mg./kg.) administered intraperitoneally. The heart rate was recorded from the E.C.G. or from the pulse, and blood pressure was recorded from the carotid artery. Whole (0.3-0.6 μg.) and half (0.15-0.3 μg.) doses of isoprenaline were then administered, intravenously via the jugular vein, alternately at 7 minute intervals over a period of several hours. 210 seconds after a half dose of isoprenaline, one of the compounds under test was administered intravenously. 210 seconds later the whole dose of isoprenaline was administered. The doses of the test compound required to reduce (1) the tachycardia and (2) the fall in diastolic blood pressure produced by the whole dose of isoprenaline to that produced by the half dose were determined. The former response gives a measure of the ability of the test compound to block β-adrenoceptors in the heart while the latter response gives a measure of the ability of the test compound to block the β-adrenoceptors mediating vasodilation.
(§3) Those hydrochloride salts of compounds A, G, H and J were dissolved in water and administered in aqueous solution. Compounds B, C, D, E, F and I were each dissolved in dilute aqueous hydrochloric acid solution (0.1 N) and the solution thus obtained was neutralised by treatment with aqueous sodium hydroxide solution (0.1 N), to give a neutral solution of the hydrochloride salt of the test compound suitable for administration.

[2] = test system: β-adrenoceptors mediating vasodilation; assay: Test I. β-Adrenoceptor blocking activity in the anaesthetised cat (intravenous), vascular (isoprenaline fall in diastolic blood pressure); assay type: in vivo; conditions: for i.v. Dose Vascular (dose required to reduce fall in diastolic blood pressure produced by whole dose of isoprenaline to that produced by half dose): hydrochloride salts, isoprenaline 210 seconds after test compound; for Ratio cardiac dose / vascular dose: i.v.
Experimental: as §1, §2, §3

[3] = Acute toxicity, mouse, intravenous; conditions: in vivo, read-out: i.v. LD80
[4] = test system: β-adrenoceptors mediating vasodilation; assay: Test II. β-Adrenoceptor blocking activity in the anaesthetised dog (intravenous), vascular; assay type: in vivo; conditions: i.v., hydrochloride salt
Experimental: as §2
(§4) Test II. β-Adrenoceptor blocking activity in the anaesthetised rhesus monkey and in the anaesthetised dog (intravenous administration)
(§5) Test compound A (hydrochloride salt) was tested intravenously in anaesthetised rhesus monkeys and dogs by proceeding in a similar fashion to that described above in Test I.

[5] = test system: β-adrenoceptors in the heart; assay: Test III. β-Adrenoceptor blocking activity in the anaesthetised dog (oral), cardiac; assay type: in vivo; conditions: hydrochloride salt
Experimental: as §2
(§6) Test III. β-Adrenoceptor blocking activity in the anaesthetised dog (oral administration)
(§7) Test compound A(hydrochloride salt) was tested orally in anaesthetised dogs by proceeding in a similar fashion to that described above in Test I and Test II. The results are expressed below in Table III.

[6] = test system: β-adrenoceptors mediating vasodilation; assay: Test III. β-Adrenoceptor blocking activity in the anaesthetised dog (oral), vascular; assay type: in vivo; conditions: hydrochloride salt
Experimental: as §2, §6, §7

[7] = test system: β-adrenoceptors in the heart; assay: Test II. β-Adrenoceptor blocking activity in the anaesthetised dog (intravenous), cardiac; assay type: in vivo; conditions: i.v., hydrochloride salt
Experimental: as §2, §4, §5

[8] = test system: β-adrenoceptors mediating vasodilation; assay: Test II. β-Adrenoceptor blocking activity in the anaesthetised rhesus monkey (intravenous), vascular; assay type: in vivo; conditions: i.v., hydrochloride salt
Experimental: as §2, §4, §5

[9] = Toxicity, dog, oral, two weeks; assay type: in vivo, dog (beagle); conditions: beagles, oral daily doses of 10, 50 or 100 mg./kg. during two weeks
Experimental: Two groups, each of two males and two females, each received a daily dose of 10 or 50 mg./kg. animal body weight and one group, of one male and one female, received a daily dose of 100 mg./kg. animal body weight.

[10] = test system: β-adrenoceptors in the heart; assay: Test II. β-Adrenoceptor blocking activity in the anaesthetised rhesus monkey (intravenous), cardiac; assay type: in vivo; conditions: i.v., hydrochloride salt
Experimental: as §2, §4, §5

[11] = Toxicity, rat, oral, two weeks; assay type: in vivo; conditions: oral daily doses of 12, 24, 48 or 96 mg./kg. during two weeks
[12] = Acute toxicity, mouse, oral; conditions: in vivo

Cc1cc(C)c(C(=O)c2ccccc2)c(OCC(O)CNC(C)C)c1C (racemic) [Compound C, DL-1-(2-benzoyl-3,5,6-trimethylphenoxy)-2-hydroxy-3-isopropylaminopropane]
i.v. Dose Cardiac (dose required to reduce tachycardia produced by whole dose of isoprenaline to that produced by half dose) [1]: 4.4 mg./kg. animal body weight
i.v. Dose Vascular (dose required to reduce fall in diastolic blood pressure produced by whole dose of isoprenaline to that produced by half dose) [2]: 2.3 mg./kg. animal body weight
Ratio cardiac dose / vascular dose [2]: 1.9
LD50 [3]: 23 mg/kg

Cc1cc(C)c(C(=O)c2ccccc2C)c(OCC(O)CNC(C)C)c1 (racemic) [D, DL-1-(3,5-dimethyl-2-o-toluoylphenoxy)-2-hydroxy-3-isopropylaminopropane]
i.v. Dose Cardiac (dose required to reduce tachycardia produced by whole dose of isoprenaline to that produced by half dose) [1]: 0.8 mg./kg. animal body weight
i.v. Dose Vascular (dose required to reduce fall in diastolic blood pressure produced by whole dose of isoprenaline to that produced by half dose) [2]: 0.16 mg./kg. animal body weight
Ratio cardiac dose / vascular dose [2]: 5.0
LD50 [3]: 34 mg/kg

Cc1cc(C)c(C(=O)c2ccccc2)c(OCC(O)CNC(C)C)c1 (racemic) [Compound A, DL-1-(2-benzoyl-3,5-dimethylphenoxy)-2-hydroxy-3-isopropylaminopropane]
Dose vascular ([4]; 210 second interval after dose): < 0.02 mg./kg. animal body weight
Dose vascular ([4]; one hour interval after dose): < 0.02 mg./kg. animal body weight
i.v. Dose Cardiac (dose required to reduce tachycardia produced by whole dose of isoprenaline to that produced by half dose) [1]: 1.1 mg./kg. animal body weight
Oral dose cardiac ([5]; 1 hour after dose): 4 mg./kg. animal body weight
Oral dose cardiac ([5]; 2 hours after dose): 3.2 mg./kg. animal body weight
Oral dose cardiac ([5]; 3 hours after dose): 6 mg./kg. animal body weight
Oral dose vascular ([6]; 1 hour after dose): < 0.1 mg./kg. animal body weight
Oral dose vascular ([6]; 2 hours after dose): 0.08 mg./kg. animal body weight
Oral dose vascular ([6]; 3 hours after dose): 0.1 mg./kg. animal body weight
Dose cardiac ([7]; 210 second interval after dose): 0.1 mg./kg. animal body weight
Dose cardiac ([7]; one hour interval after dose): 0.13 mg./kg. animal body weight
Dose vascular ([8]; 210 second interval after dose): 0.0087 mg./kg. animal body weight
Dose vascular ([8]; one hour interval after dose): 0.0076 mg./kg. animal body weight
tolerability [9]: well tolerated
i.v. Dose Vascular (dose required to reduce fall in diastolic blood pressure produced by whole dose of isoprenaline to that produced by half dose) [2]: 0.023 mg./kg. animal body weight
Ratio cardiac dose / vascular dose [2]: 48
LD50 [3]: 40 mg/kg
Dose cardiac ([10]; 210 second interval after dose): 0.1 mg./kg. animal body weight
Dose cardiac ([10]; one hour interval after dose): > 1 mg./kg. animal body weight
tolerability [11]: well tolerated

Cc1cc(C)c(C(=O)c2ccc(Cl)cc2)c(OCC(O)CNC(C)C)c1 (racemic) [H, DL-1-(2-p-chlorobenzoyl-3,5-dimethylphenoxy)-2-hydroxy-3-isopropylaminopropane]
i.v. Dose Cardiac (dose required to reduce tachycardia produced by whole dose of isoprenaline to that produced by half dose) [1]: 0.72 mg./kg. animal body weight
i.v. Dose Vascular (dose required to reduce fall in diastolic blood pressure produced by whole dose of isoprenaline to that produced by half dose) [2]: 0.037 mg./kg. animal body weight
Ratio cardiac dose / vascular dose [2]: 19
LD50 [3]: 32 to 40 mg/kg

Cc1ccc(C(=O)c2c(C)cc(C)cc2OCC(O)CNC(C)C)c(C)c1 (racemic) [F, DL-1-[2-(2,4-dimethylbenzoyl)-3,5-dimethylphenoxy]-2-hydroxy-3-isopropylaminopropane]
i.v. Dose Cardiac (dose required to reduce tachycardia produced by whole dose of isoprenaline to that produced by half dose) [1]: 0.59 mg./kg. animal body weight
i.v. Dose Vascular (dose required to reduce fall in diastolic blood pressure produced by whole dose of isoprenaline to that produced by half dose) [2]: 0.24 mg./kg. animal body weight
Ratio cardiac dose / vascular dose [2]: 2.5
LD50 [3]: 24 mg/kg

Cc1ccc(C(=O)c2c(C)cc(C)cc2OCC(O)CNC(C)(C)C)cc1 (racemic) [Compound I, DL-1-t-butylamino-3-(3,5-dimethyl-2-p-toluoylphenoxy)-2-hydroxypropane]
i.v. Dose Cardiac (dose required to reduce tachycardia produced by whole dose of isoprenaline to that produced by half dose) [1]: 0.46 mg./kg. animal body weight
i.v. Dose Vascular (dose required to reduce fall in diastolic blood pressure produced by whole dose of isoprenaline to that produced by half dose) [2]: 0.027 mg./kg. animal body weight
Ratio cardiac dose / vascular dose [2]: 17
LD50 [3]: 24 mg/kg

Cc1ccc(C(=O)c2c(C)cc(C)cc2OCC(O)CNC(C)C)cc1 (racemic) [B, DL-1-(3,5-dimethyl-2-p-toluoylphenoxy)-2-hydroxy-3-isopropylaminopropane]
i.v. Dose Cardiac (dose required to reduce tachycardia produced by whole dose of isoprenaline to that produced by half dose) [1]: 2.9 mg./kg. animal body weight
LD50 [12]: ~1000 mg/kg
i.v. Dose Vascular (dose required to reduce fall in diastolic blood pressure produced by whole dose of isoprenaline to that produced by half dose) [2]: 0.031 mg./kg. animal body weight
Ratio cardiac dose / vascular dose [2]: 93.5
LD50 [3]: 25 to 31 mg/kg

Cc1ccc(C(=O)c2c(C)cc(C)cc2OCC(O)CNCCc2ccccc2)cc1 (racemic) [Compound J, DL-1-(3,5-dimethyl-2-p-toluoylphenoxy)-2-hydroxy-3-(2-phenylethylamino)propane]
i.v. Dose Cardiac (dose required to reduce tachycardia produced by whole dose of isoprenaline to that produced by half dose) [1]: ~2.0 mg./kg. animal body weight
i.v. Dose Vascular (dose required to reduce fall in diastolic blood pressure produced by whole dose of isoprenaline to that produced by half dose) [2]: 0.068 mg./kg. animal body weight
Ratio cardiac dose / vascular dose [2]: 29

Cc1cc(C)c(C(=O)c2c(C)cccc2C)c(OCC(O)CNC(C)C)c1 (racemic) [E, DL-1-[2-(2,6-dimethylbenzoyl)-3,5-dimethylphenoxy]-2-hydroxy-3-isopropylaminopropane]
i.v. Dose Cardiac (dose required to reduce tachycardia produced by whole dose of isoprenaline to that produced by half dose) [1]: 3.7 mg./kg. animal body weight
i.v. Dose Vascular (dose required to reduce fall in diastolic blood pressure produced by whole dose of isoprenaline to that produced by half dose) [2]: 1.8 mg./kg. animal body weight
Ratio cardiac dose / vascular dose [2]: 2.1
LD50 [3]: 42 mg/kg

Cc1ccc(C)c(C(=O)c2ccccc2)c1OCC(O)CNC(C)C (racemic) [G, DL-1-(2-benzoyl-3,6-dimethylphenoxy)-2-hydroxy-3-isopropylaminopropane]
i.v. Dose Cardiac (dose required to reduce tachycardia produced by whole dose of isoprenaline to that produced by half dose) [1]: 7.1 mg./kg. animal body weight
i.v. Dose Vascular (dose required to reduce fall in diastolic blood pressure produced by whole dose of isoprenaline to that produced by half dose) [2]: 4.2 mg./kg. animal body weight
Ratio cardiac dose / vascular dose [2]: 1.7

Reference: patent US4201790A, “Benzophenone derivatives” (May & Baker Limited, priority 1975, dated 1980)
